Values joined by “and” are separate entries in the source; they are usually repeats but may differ in a detail not shown here. Identical values can stand only once. Toxic doses and inconclusive results are not listed.

Consider 21 molecules from PubChem BioAssay AID328 (DTP/NCI, 2004).

The subject of the experiment is BDF1 mice, P388 leukemia ip, median survival T/C. Description: NCI In Vivo Anticancer Drug Screen. Data for tumor model P388 Leukemia (intraperitoneal) in B6D2F1 (BDF1) mice. The settings on record: endpoint: median survival time, higher = longer survival. An outline of the steps:
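T/C = treated-group survival ÷ vehicle-control survival; tumour transplanted into mice before dosing.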

The mark [1] stands for this setting: dose: 100.0 mg/kg/injection, schedule: Q01DX009 (ip), vehicle: Klucel (hydroxypropylcellulose) (HPC).
[2] abbreviates: dose: 100.0 mg/kg/injection, schedule: Q04DX003 (ip), vehicle: Klucel (hydroxypropylcellulose) (HPC).
The mark [3] stands for this setting: dose: 200.0 mg/kg/injection, schedule: Q01DX009 (ip), vehicle: Klucel (hydroxypropylcellulose) (HPC).
The mark [4] stands for this setting: dose: 200.0 mg/kg/injection, schedule: Q04DX003 (ip), vehicle: Klucel (hydroxypropylcellulose) (HPC).
Setting [5] is: dose: 400.0 mg/kg/injection, schedule: Q01DX009 (ip), vehicle: Klucel (hydroxypropylcellulose) (HPC).
The mark [6] stands for this setting: dose: 400.0 mg/kg/injection, schedule: Q04DX003 (ip), vehicle: Klucel (hydroxypropylcellulose) (HPC).
The mark [7] stands for this setting: dose: 25.0 mg/kg/injection, schedule: Q04DX003 (ip), vehicle: saline.
The mark [8] stands for this setting: dose: 50.0 mg/kg/injection, schedule: Q04DX003 (ip), vehicle: saline.
Where [9] appears, read: dose: 100.0 mg/kg/injection, schedule: Q04DX003 (ip), vehicle: saline.
Where [10] appears, read: dose: 3.12 mg/kg/injection, schedule: Q01DX009 (ip), vehicle: saline.
The mark [11] stands for this setting: dose: 6.25 mg/kg/injection, schedule: Q01DX009 (ip), vehicle: saline.
Setting [12] is: dose: 12.5 mg/kg/injection, schedule: Q01DX009 (ip), vehicle: saline.
[13] abbreviates: dose: 50.0 mg/kg/injection, schedule: Q01DX009 (ip), vehicle: saline with Tween-80.
Setting [14] is: dose: 100.0 mg/kg/injection, schedule: Q01DX009 (ip), vehicle: saline with Tween-80.
Setting [15] is: dose: 200.0 mg/kg/injection, schedule: Q01DX009 (ip), vehicle: saline with Tween-80.
The mark [16] stands for this setting: dose: 200.0 mg/kg/injection, schedule: Q04DX003 (ip), vehicle: saline.
Setting [17] is: dose: 100.0 mg/kg/injection, schedule: Q01DX001 (ip), vehicle: saline with Tween-80.
[18] abbreviates: dose: 200.0 mg/kg/injection, schedule: Q01DX001 (ip), vehicle: saline with Tween-80.
Setting [19] is: dose: 400.0 mg/kg/injection, schedule: Q01DX001 (ip), vehicle: saline with Tween-80.
Where [20] appears, read: dose: 50.0 mg/kg/injection, schedule: Q01DX009 (ip), vehicle: other.
Where [21] appears, read: dose: 100.0 mg/kg/injection, schedule: Q04DX003 (ip), vehicle: other.
The mark [22] stands for this setting: dose: 200.0 mg/kg/injection, schedule: Q04DX003 (ip), vehicle: other.

In the case of `COc1ccc(NC(=O)c2ccccc2Cl)cc1`, the T/C was 100 % of control under setting [1]; 104 % of control under setting [2]; 95 % of control under setting [3]; 91 % of control under setting [4]; 104 % of control under setting [5]; 112 % of control under setting [6].

With `CC1CN1P(=O)(N1CCCC1)N1CC1C` (centres undefined), the T/C reads like this: (dose: 12.5 mg/kg/injection, schedule: Q04DX003 (ip), vehicle: saline) 102 % of control; (dose: 25.0 mg/kg/injection, schedule: Q01DX009 (ip), vehicle: saline) 156 % of control; under setting [7], 105 % of control; (dose: 32.0 mg/kg/injection, schedule: Q01DX009 (ip), vehicle: saline) 155 % of control; (dose: 37.5 mg/kg/injection, schedule: Q01DX009 (ip), vehicle: saline) 173 % of control; under setting [8], 169 % of control. Besides, the T/C is 87 % of control (dose: 64.0 mg/kg/injection, schedule: Q01DX009 (ip), vehicle: saline) and 179 % of control under setting [9].

`CC(=O)OC(C)(C)/C=C/C(=O)[C@](C)(O)[C@H]1[C@H](O)C[C@@]2(C)[C@@H]3CC=C4[C@@H](C[C@H](O)[C@H](O)C4(C)C)[C@]3(C)C(=O)C[C@]12C`: the T/C runs as follows: (dose: 80.0 mg/kg/injection, schedule: Q01DX010 (ip), vehicle: saline) 109 % of control; (dose: 120.0 mg/kg/injection, schedule: Q01DX010 (ip), vehicle: saline) 122 % of control; (dose: 180.0 mg/kg/injection, schedule: Q01DX010 (ip), vehicle: saline) 118 % of control.

On to `O=C(/C(=C\c1ccccc1)CBr)c1ccc(Br)cc1`, for which the T/C is 115 % of control under setting [10], 115 % of control under setting [11] and 110 % of control under setting [12].

Turning to `O=CC1(C(O)C2SCCCS2)SCCCS1` (centres undefined), the T/C reads like this: (dose: 12.5 mg/kg/injection, schedule: Q01DX001 (ip), vehicle: other) 95 % of control; (dose: 25.0 mg/kg/injection, schedule: Q01DX001 (ip), vehicle: other) 104 % of control; (dose: 50.0 mg/kg/injection, schedule: Q01DX001 (ip), vehicle: other) 109 % of control.

Regarding `O=S(=O)(N=C1C(Cl)=C(Cl)C(=NS(=O)(=O)c2ccccc2)C(Cl)=C1Cl)c1ccccc1`, the T/C was 104 % of control under setting [1]; 100 % of control under setting [2]; 86 % of control under setting [3]; 100 % of control under setting [4]; 100 % of control under setting [5]; 100 % of control under setting [6].

Consider `Nc1nc(=S)c2[nH]c(N=Nc3ccc(S(=O)(=O)Nc4ncccn4)cc3)nc2[nH]1`, for which the T/C reads like this: (dose: 50.0 mg/kg/injection, schedule: Q01DX009 (ip), vehicle: Klucel (hydroxypropylcellulose) (HPC)) 118 % of control; (dose: 50.0 mg/kg/injection, schedule: Q04DX003 (ip), vehicle: Klucel (hydroxypropylcellulose) (HPC)) 108 % of control; under setting [1], 100 % of control; under setting [2], 108 % of control; under setting [3], 86 % of control; under setting [4], 112 % of control.

In the case of `CC(C)OC(CCCl)c1ccccc1` (centres undefined), the T/C was 95 % of control (dose: 75.0 mg/kg/injection, schedule: Q01DX009 (ip), vehicle: Klucel (hydroxypropylcellulose) (HPC)); 100 % of control under setting [2]; 109 % of control (dose: 150.0 mg/kg/injection, schedule: Q01DX009 (ip), vehicle: Klucel (hydroxypropylcellulose) (HPC)); 96 % of control under setting [4]; 109 % of control (dose: 300.0 mg/kg/injection, schedule: Q01DX009 (ip), vehicle: Klucel (hydroxypropylcellulose) (HPC)); 100 % of control under setting [6].

Regarding `COCCn1c2c(n/c(=C(\O)OC)c1=N)CCCC=2`, the T/C runs as follows: under setting [13], 106 % of control; under setting [14], 116 % of control; under setting [15], 97 % of control.

Turning to `O=C(O)c1ccc(S(=O)(=O)O)cc1C(=O)O`, the T/C runs as follows: under setting [8], 104 % of control; under setting [9], 100 % of control; under setting [16], 91 % of control.

For `CCc1c(-c2ccccc2)[nH]c2ccccc12`, the T/C is, setting by setting: under setting [13], 115 % of control; under setting [14], 113 % of control; under setting [15], 123 % of control.

Consider `CC(=O)c1ccc2c(c1)N(CCCN1CCN(CCO)CC1)c1ccccc1S2`, for which the T/C runs as follows: under setting [10], 107 % of control; under setting [11], 96 % of control; under setting [12], 94 % of control.

Turning to `CCOc1ccc(N2CC(=O)N3CCCC(c4ccccc4)N3C(=O)C2)cc1` (centres undefined), the T/C by setting is: (dose: 50.0 mg/kg/injection, schedule: Q01DX005 (ip), vehicle: saline with Tween-80) 108 % of control; (dose: 100.0 mg/kg/injection, schedule: Q01DX005 (ip), vehicle: saline with Tween-80) 94 % of control; (dose: 200.0 mg/kg/injection, schedule: Q01DX005 (ip), vehicle: saline with Tween-80) 94 % of control.

Turning to `[O-][n+]1c(-c2ccccc2)c(C(O)c2ccccc2)nc2ccccc21` (centres undefined), the T/C under setting [17] was 105 % of control, the T/C under setting [18] is 94 % of control and the T/C under setting [19] was 96 % of control.

As for `OC(c1cc(C(F)(F)F)nc2c(F)cccc12)C1CCCCN1` (centres undefined), the T/C under setting [17] is 91 % of control, the T/C under setting [18] is 95 % of control and the T/C under setting [19] is 100 % of control.

For the molecule `COC(=O)CCCNC1CCCCC1`, the T/C runs as follows: (dose: 50.0 mg/kg/injection, schedule: Q01DX001 (ip), vehicle: saline) 107 % of control; (dose: 100.0 mg/kg/injection, schedule: Q01DX001 (ip), vehicle: saline) 114 % of control; (dose: 200.0 mg/kg/injection, schedule: Q01DX001 (ip), vehicle: saline) 102 % of control.

As to `O=C(Nc1ccc(Nc2ccncc2)cc1)c1ccc([N+](=O)[O-])cc1`, the T/C was 90 % of control under setting [2], 90 % of control under setting [4] and 118 % of control under setting [6].

For `Cc1cc(C)c(N)c(Br)c1`, the T/C by setting is: (dose: 12.5 mg/kg/injection, schedule: Q01DX009 (ip), vehicle: other) 90 % of control; (dose: 25.0 mg/kg/injection, schedule: Q01DX009 (ip), vehicle: other) 90 % of control; under setting [20], 114 % of control; under setting [21], 100 % of control.

Regarding `COc1cc(Cc2nccc3cc(OC)c(OC)cc23)c(C(C)=O)c(OC)c1`, the T/C reads like this: (dose: 10.0 mg/kg/injection, schedule: Q01DX009 (ip), vehicle: saline) 157 % of control and 190 % of control; (dose: 20.0 mg/kg/injection, schedule: Q01DX009 (ip), vehicle: saline) 163 % of control and 170 % of control; under setting [7], 154 % of control; under setting [8], 157 % of control; under setting [9], 203 % of control and 206 % of control; under setting [16], 93 % of control.

For the molecule `COc1cc2ccc(CC3NCCc4cc5c(cc43)OCO5)cc2cc1OC` (centres undefined), the T/C is 105 % of control (dose: 22.0 mg/kg/injection, schedule: Q01DX009 (ip), vehicle: saline with Tween-80); 110 % of control (dose: 33.0 mg/kg/injection, schedule: Q01DX009 (ip), vehicle: saline with Tween-80); 100 % of control under setting [20]; 115 % of control under setting [13]; 110 % of control (dose: 75.0 mg/kg/injection, schedule: Q01DX009 (ip), vehicle: saline with Tween-80); 100 % of control (dose: 100.0 mg/kg/injection, schedule: Q01DX009 (ip), vehicle: other). In addition, the T/C is 118 % of control under setting [21] and 118 % of control under setting [22].

For the molecule `OCCNc1ccc(I)cc1`, the T/C was 113 % of control under setting [21]; 122 % of control under setting [22]; 104 % of control (dose: 400.0 mg/kg/injection, schedule: Q04DX003 (ip), vehicle: other).
